According to US12612412B2, “Antiviral heterocyclic compounds” (Enanta Pharmaceuticals, Inc., priority 2021, dated 2026):

Key:
[1] = tested on: recombinant HMPV CAN97-83 containing eGFP (MPV-GFP1); assay: HMPV antiviral assay Method-A (MPV-GFP1 eGFP fluorescence in Vero E6 cells); type: cell-based, Human metapneumovirus (HMPV); details: human metapneumovirus, Vero C1008, 120 h, read-out: HMPV EC50
Description: HMPV antiviral activity was evaluated using a recombinant version of HMPV CAN97-83 engineered to contain the coding sequence for enhanced green fluorescence protein (eGFP) in the 3′ end of the virus genome (MPV-GFP1, ViraTree). Vero E6 cells ([…]) were seeded at a density of 12,000 cells/100 μL/well into 96-well cell plates one day prior to the assay. On the day of screening, the cell culture medium was aspirated from the wells and cells were washed twice with serum-free Eagle's Modified Essential Medium (EMEM, ATCC #) containing 1% penicillin-streptomycin (Invitrogen) (SF-EMEM). Cell washes were performed by dispensing 100 μL SF-EMEM per well and immediately aspirating the wash medium from the well. Following the second wash step, serum-free OptiMEM (Invitrogen, Cat No.) (SF-OptiMEM) containing 0.5 μg/mL TPCK-Trypsin (VENDOR) and 1% penicillin-streptomycin was added to the cells at 50 μL/well. Compounds were added into the 96-well plates using a JANUS automated liquid handling system (VENDOR). Compounds were initially diluted 1:50 into an intermediate 96-well plate containing SF-OptiMEM prior to transfer to the assay plate (25 μL/well). Each of the test compounds were tested in duplicate wells at final concentrations starting from 8 μM or 2 μM using ½ stepwise dilutions for a total of 8 points. Virus infection was performed by preparing a working stock of MPV-GFP1 at a multiplicity of infection (MOI) equal to 0.05/25 μL and aliquoting 25 μL of virus inoculum to the compound and positive control wells. SF-OptiMEM was added (25 μL/well) to the appropriate wells to serve as a virus-free negative control for the assay. The final DMSO concentration of all wells is 0.5%. Plates were incubated at 32° C., 5% CO2 for 5 days.
After 5 days incubation, eGFP fluorescence intensity was measured at (X) […] wavelength using a Spectramax i3× plate reader (VENDOR). Percent viral inhibition was calculated using the following equation: y=[…]
Where XQ is the fluorescence intensity measured in a well containing recombinant MPV-GFP1-infected, compound-treated cells and XP is the average fluorescence intensity measured in the wells containing untreated cells infected with recombinant virus. EC50 values were then calculated by non-linear regression using a four parameter curve logistic equation. The curve fit model employed was XLFit Dose Response One Site Model 200: y=(A+(B/(1+((x/C)^D))))
Where A is the minimum y value, B is the maximum y value, C is the log EC50 value, and D is the slope factor. […] EC50 ranges are as follows: A<0.5 μM; B>0.5 μM.

[2] = tested on: genotype A, "Long" strain RSV; assay: RSV-A assay (CPE protection in Hep-2 cells, ATPlite readout); type: cell-based, Human respiratory syncytial virus (HRSV); details: human respiratory syncytial virus, genotype A “Long” strain RSV, MOI 0.1, CPE protection, read-out: Human RSV-A (“Long”)
Summary of the method: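 Hep-2, 8,000 cells/well, MOI 0.1 (PFU- or TCID50-based); 2-fold compound series, duplicates; 5 d incubation; ATPlite luminescence readout; EC50.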

Row | Structure (SMILES) | EC50 [1] [nM] | EC50 [2] [nM]
1 | C[C@H](COc1ccc(C(=O)NC[C@](O)(c2cc3c(c(-c4ccc(F)cc4)n2)OC[C@]3(C)C(N)=O)C(F)(F)F)cc1OC1CC1)OP(=O)(O)O [Example 3] | > 500 | < 200
2 | COc1cc(C(=O)NC[C@](O)(c2cc3c(c(-c4ccc(F)cc4)n2)OC[C@]3(C)C(N)=O)C(F)(F)F)cc2cc(C)c(CO)nc12 [Example 4] | < 500 | < 200
3 | COc1cc(C(=O)NC[C@](O)(c2cc3c(c(-c4ccc(F)cc4)n2)OC[C@]3(C)C(N)=O)C(F)(F)F)cc2ccnnc12 [Example 6] | < 500 | < 200
4 | C[C@]1(C(N)=O)COc2c1cc([C@@](O)(CNC(=O)c1ccc3nnc(C4CC4)cc3c1)C(F)(F)F)nc2-c1ccc(F)cc1 [Example 7] | < 500 | < 200
5 | COc1cc(C(=O)NC[C@](O)(c2cc3c(c(-c4ccc(F)cc4)n2)OC[C@]3(C)C(N)=O)C(F)(F)F)cc2cc(C)nnc12 [Example 9] | < 500 | < 200
6 | COc1cc(C(=O)NC[C@](O)(c2cc3c(c(-c4ccc(F)c(Cl)c4)n2)OC[C@]3(C)C(N)=O)C(F)(F)F)cc2cc(C)nnc12 [Example 10] | < 500 | < 200
7 | CCc1nc2ccc(C(=O)NC[C@](O)(c3cc4c(c(-c5ccc(F)cc5)n3)OC[C@]4(C)C(N)=O)C(F)(F)F)cc2s1 [Example 11] | > 500 | < 200
8 | C[C@]1(C(N)=O)COc2c1cc([C@@](O)(CNC(=O)c1cc(F)c3nc(N)sc3c1)C(F)(F)F)nc2-c1ccc(F)c(Cl)c1 [Example 12] | < 500 | < 200
9 | C[C@]1(C(N)=O)COc2c1cc([C@@](O)(CNC(=O)c1cc(Cl)c3nc(N)sc3c1)C(F)(F)F)nc2-c1ccc(F)c(Cl)c1 [Example 13] | < 500 | < 200
10 | C[C@]1(C(N)=O)COc2c1cc([C@@](O)(CNC(=O)c1ccc3nc(C4CC4)sc3c1)C(F)(F)F)nc2-c1ccc(F)cc1 [Example 14] | < 500 | < 200
11 | CCc1nc2c(OC)cc(C(=O)NC[C@](O)(c3cc4c(c(-c5ccc(F)cc5)n3)OC[C@]4(C)C(N)=O)C(F)(F)F)cc2s1 [Example 16] | < 500 | < 200
12 | COc1cc(C(=O)NC[C@](O)(c2cc3c(c(-c4ccc(F)cc4)n2)OC[C@]3(C)C(N)=O)C(F)(F)F)cc2sc(C3CC3)nc12 [Example 17] | < 500 | < 200
13 | COc1cc(C(=O)NC[C@](O)(c2cc3c(c(-c4ccc(F)c(Cl)c4)n2)OC[C@]3(C)C(N)=O)C(F)(F)F)cc2sc(C3CC3)nc12 [Example 19] | < 500 | < 200
14 | CCc1nc2c(OC)cc(C(=O)NC[C@](O)(c3cc4c(c(-c5ccc(F)c(Cl)c5)n3)OC[C@]4(C)C(N)=O)C(F)(F)F)cc2s1 [Example 20] | < 500 | < 200
15 | Cn1cc2cc(C(=O)NC[C@](O)(c3cc4c(c(-c5ccc(F)cc5)n3)OC[C@]4(C)C(N)=O)C(F)(F)F)cc(F)c2n1 [Example 22] | < 500 | < 200
16 | COc1cc(C(=O)NC[C@](O)(c2cc3c(c(-c4ccc(F)cc4)n2)OC[C@]3(C)C(N)=O)C(F)(F)F)cc2cn(C3CC3)nc12 [Example 24] | < 500 | < 200
17 | C[C@]1(C(N)=O)COc2c1cc([C@@](O)(CNC(=O)c1cc(F)c3nn(C4CC4)cc3c1)C(F)(F)F)nc2-c1ccc(F)cc1 [Example 25] | < 500 | < 200
18 | C[C@]1(C(N)=O)COc2c1cc([C@@](O)(CNC(=O)c1cc(OC3CC3)c3nn(C4CC4)cc3c1)C(F)(F)F)nc2-c1ccc(F)cc1 [Example 26] | < 500 | < 200
19 | Cn1cc2cc(C(=O)NC[C@](O)(c3cc4c(c(-c5ccc(F)cc5)n3)OC[C@]4(C)C(N)=O)C(F)(F)F)cc(OC3CC3)c2n1 [Example 27] | < 500 | < 200
20 | COc1cc(C(=O)NC[C@](O)(c2cc3c(c(-c4ccc(F)c(Cl)c4)n2)OC[C@]3(C)C(N)=O)C(F)(F)F)cc2cn(C3CC3)nc12 [Example 28] | < 500 | < 200

Row | Structure (SMILES) | EC50 [1] [nM] | EC50 [2] [nM]
21 | C[C@]1(C(N)=O)COc2c1cc([C@@](O)(CNC(=O)c1cc(F)c3nn(C4CC4)cc3c1)C(F)(F)F)nc2-c1ccc(F)c(Cl)c1 [Example 29] | < 500 | < 200
22 | C[C@]1(C(N)=O)COc2c1cc([C@@](O)(CNC(=O)c1cc(OC3CC3)c3nn(C4CC4)cc3c1)C(F)(F)F)nc2-c1ccc(F)c(Cl)c1 [Example 30] | < 500 | < 200
23 | COc1cc(C(=O)NC[C@](O)(c2cc3c(c(-c4ccc(F)c(Cl)c4)n2)OC[C@]3(C)C(N)=O)C(F)(F)F)cc2cc(C3CC3)nn12 [Example 32] | < 500 | < 200
24 | C[C@]1(C(N)=O)COc2c1cc([C@@](O)(CNC(=O)c1ccc3c(c1)CN(C1CC1)C3=O)C(F)(F)F)nc2-c1ccc(F)cc1 [Example 34] | > 500 | < 200
25 | COc1cc(C(=O)NC[C@](O)(c2cc3c(c(-c4ccc(F)cc4)n2)OC[C@]3(C)C(N)=O)C(F)(F)F)cc2cn(C(F)F)nc12 [Example 40] | < 500 | < 200
26 | C[C@]1(C(N)=O)COc2c1cc([C@@](O)(CNC(=O)c1ccc3nn(C(F)F)cc3c1)C(F)(F)F)nc2-c1ccc(F)cc1 [Example 41] | < 500 | < 200
27 | C[C@]1(C(N)=O)COc2c1cc([C@@](O)(CNC(=O)c1cc(Cl)c3nn(C(F)F)cc3c1)C(F)(F)F)nc2-c1ccc(F)cc1 [Example 42] | < 500 | < 200
28 | C[C@]1(C(N)=O)COc2c1cc([C@@](O)(CNC(=O)c1cc(F)c3nn(C(F)F)cc3c1)C(F)(F)F)nc2-c1ccc(F)cc1 [Example 43] | < 500 | < 200
29 | C[C@]1(C(N)=O)COc2c1cc([C@@](O)(CNC(=O)c1cc(Cl)c3nn(C(F)F)cc3c1)C(F)(F)F)nc2-c1ccc(F)c(Cl)c1 [Example 44] | < 500 | < 200
30 | C[C@]1(C(N)=O)COc2c1cc([C@@](O)(CNC(=O)c1cc(F)c3nn(C(F)F)cc3c1)C(F)(F)F)nc2-c1ccc(F)c(Cl)c1 [Example 45] | < 500 | < 200
31 | C[C@]1(C(N)=O)COc2c1cc([C@@](O)(CNC(=O)c1cc(C3CC3)c3nn(C(F)F)cc3c1)C(F)(F)F)nc2-c1ccc(F)cc1 [Example 47] | < 500 | < 200
32 | C[C@]1(C(N)=O)COc2c1cc([C@@](O)(CNC(=O)c1cc(C3CC3)c3nn(C(F)F)cc3c1)C(F)(F)F)nc2-c1ccc(F)c(Cl)c1 [Example 48] | < 500 | < 200
33 | COc1cc(C(=O)NC[C@](O)(c2cc3c(c(-c4ccc(F)cc4)n2)OC[C@]3(C)C(N)=O)C(F)(F)F)cn2cc(C(F)(F)F)nc12 [Example 49] | > 500 | < 200
34 | Cc1cn2cc(C(=O)NC[C@](O)(c3cc4c(c(-c5ccc(F)cc5)n3)OC[C@]4(C)C(N)=O)C(F)(F)F)ccc2n1 [Example 50] | > 500 | < 200
35 | C[C@]1(C(N)=O)COc2c1cc([C@@](O)(CNC(=O)c1ccc3nc(C4CC4)cn3c1)C(F)(F)F)nc2-c1ccc(F)cc1 [Example 51] | < 500 | < 200
36 | Cc1cn2cc(C(=O)NC[C@](O)(c3cc4c(c(-c5ccc(F)cc5)n3)OC[C@]4(C)C(N)=O)C3CC3)ccc2n1 [Example 52] | < 500 | < 200
37 | C[C@]1(C(N)=O)COc2c1cc([C@@](O)(CNC(=O)c1ccc3nc(C4CC4)cn3c1)C1CC1)nc2-c1ccc(F)cc1 [Example 53] | < 500 | < 200
38 | C[C@]1(C(N)=O)COc2c1cc([C@@](O)(CNC(=O)c1ccc3nc(C(F)(F)F)cn3c1)C(F)(F)F)nc2-c1ccc(F)cc1 [Example 54] | > 500 | < 200
39 | Cc1cn2cc(C(=O)NC[C@](O)(c3cc4c(c(-c5ccc(F)cc5)n3)OC[C@]4(C)C(N)=O)C(F)(F)F)cc(Cl)c2n1 [Example 55] | < 500 | < 200
40 | C[C@]1(C(N)=O)COc2c1cc([C@@](O)(CNC(=O)c1cc(F)c3nc(C4CC4)cn3c1)C(F)(F)F)nc2-c1ccc(F)cc1 [Example 57] | > 500 | < 200
